According to ChEMBL document CHEMBL1201862, “PubChem BioAssay data set” (2004):
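How tested: cells in 96-well plates exposed to compound for 48 hours at five concentrations. Abbreviation: GI50, concentration required for 50% inhibition of growth.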 Active and inactive are the calls of the source. Rule as the data show it: active = GI50 up to about 1.1 µM and inactive = higher.

Key:
Assay in all cases: NCI tumour cell line growth inhibition, 48 h
SN12C = system: SN12C
LOX IMVI = system: LOX IMVI
NCI-H460 = system: NCI-H460
SF-539 = system: SF-539
HCT-116 = system: HCT-116
UO-31 = system: UO-31
SK-MEL-2 = system: SK-MEL-2
Malme-3M = system: Malme-3M
SNB-19 = system: SNB-19
U-251 = system: U-251
SF-295 = system: SF-295
A498 = system: A498
EKVX = system: EKVX
NCI-H23 = system: NCI-H23
UACC-62 = system: UACC-62
OVCAR-4 = system: OVCAR-4

Measured: GI50

CC1(C)CC(=O)C2=C(C1)S/C(=C1/SC3=C(S1)C(=O)CC(C)(C)C3)S2
inactive: SN12C > 251 µM | LOX IMVI > 251 µM | NCI-H460 > 251 µM | SF-539 > 251 µM | HCT-116 > 251 µM | UO-31 > 251 µM | SK-MEL-2 > 251 µM | Malme-3M > 251 µM | SNB-19 > 251 µM | U-251 > 251 µM | SF-295 > 251 µM | A498 > 251 µM | EKVX > 251 µM | NCI-H23 > 251 µM | UACC-62 > 251 µM

O=C(/C=C/c1cc(Cl)cc(Cl)c1O)c1cccc(O)c1
inactive: SN12C 13.7 µM | LOX IMVI 12.6 µM | NCI-H460 > 100 µM | SF-539 28.2 µM | HCT-116 42.4 µM | OVCAR-4 40.2 µM | UO-31 74.1 µM | SK-MEL-2 26.2 µM | Malme-3M 28.6 µM | SNB-19 41.9 µM | U-251 25.5 µM | SF-295 14.8 µM | A498 > 100 µM | EKVX 36.3 µM | NCI-H23 52 µM | UACC-62 29.8 µM

CN(C)C(=S)Nc1nnc(Nc2ccccc2)s1
inactive: SN12C > 100 µM | LOX IMVI > 100 µM | NCI-H460 > 100 µM | SF-539 > 100 µM | HCT-116 > 100 µM | OVCAR-4 > 100 µM | UO-31 > 100 µM | SK-MEL-2 > 100 µM | Malme-3M > 100 µM | SNB-19 > 100 µM | U-251 > 100 µM | A498 > 100 µM | EKVX > 100 µM | NCI-H23 > 100 µM

COC(=O)C1=C(C)N(NC(N)=O)C2(N)N(NC(N)=O)C(C)=C(C(=O)OC)C12C(=O)OC (stereo not drawn)
inactive: SN12C > 100 µM | LOX IMVI > 100 µM | NCI-H460 > 100 µM | SF-539 > 100 µM | HCT-116 > 100 µM | OVCAR-4 > 100 µM | UO-31 > 100 µM | SK-MEL-2 > 100 µM | Malme-3M > 100 µM | SNB-19 > 100 µM | U-251 > 100 µM | SF-295 > 10 µM | A498 > 100 µM | EKVX > 100 µM | NCI-H23 > 100 µM | UACC-62 > 100 µM

COc1ccc(-c2nc3c(nc2-c2ccc(OC)cc2)C(N)=NS(=O)(=O)N3)cc1
inactive: SN12C > 100 µM | LOX IMVI > 100 µM | SF-539 > 100 µM | UO-31 > 100 µM | SK-MEL-2 > 100 µM | Malme-3M > 100 µM | SNB-19 > 100 µM | U-251 > 100 µM | SF-295 > 100 µM | A498 > 100 µM | EKVX > 100 µM | NCI-H23 > 100 µM | UACC-62 > 100 µM

C1OC1CO[C@@H]1CO[C@H]2[C@@H]1OC[C@H]2OCC1CO1 (stereo partly drawn)
inactive: SN12C > 100 µM | LOX IMVI > 100 µM | NCI-H460 61.7 µM | SF-539 > 100 µM | HCT-116 > 100 µM | OVCAR-4 > 100 µM | UO-31 > 100 µM | SK-MEL-2 > 100 µM | Malme-3M > 100 µM | SNB-19 > 100 µM | U-251 > 100 µM | SF-295 > 100 µM | A498 > 100 µM | EKVX > 100 µM | NCI-H23 > 100 µM | UACC-62 > 100 µM

Nc1nc2ncn(CC(O)CO)c2c(=S)[nH]1 (stereo not drawn)
inactive: SN12C > 100 µM | LOX IMVI > 100 µM | NCI-H460 > 100 µM | SF-539 > 100 µM | HCT-116 > 100 µM | OVCAR-4 > 100 µM | UO-31 > 100 µM | SK-MEL-2 > 100 µM | Malme-3M > 100 µM | SNB-19 > 100 µM | U-251 > 100 µM | SF-295 > 100 µM | A498 > 100 µM | EKVX > 100 µM | UACC-62 > 100 µM

C1=CC(N(c2ccccc2)C2C=CCCC2)CCC1 (stereo not drawn)
inactive: SN12C > 100 µM | LOX IMVI > 100 µM | NCI-H460 > 100 µM | SF-539 > 100 µM | HCT-116 70.1 µM | U-251 > 100 µM | SF-295 85.7 µM | A498 > 100 µM | EKVX > 100 µM | NCI-H23 > 100 µM | UACC-62 > 100 µM

CCOc1ccc(N2C(=O)/C(=C/c3ccc(N(CCC#N)CCC#N)cc3)N=C2c2cc([N+](=O)[O-])ccc2Cl)cc1
inactive: SN12C 63 µM | LOX IMVI 23 µM | NCI-H460 23.5 µM | SF-539 27.2 µM | HCT-116 21.6 µM | OVCAR-4 59 µM | UO-31 39.4 µM | SK-MEL-2 > 100 µM | SNB-19 35.8 µM | U-251 51.5 µM | SF-295 24.2 µM | A498 48.6 µM | EKVX 27.4 µM | NCI-H23 40.8 µM | UACC-62 26.7 µM

O=C(CC(=O)c1cccc2ccccc12)C(=O)NC1C2CC3CC(C2)CC1C3 (stereo not drawn)
inactive: SN12C > 100 µM | LOX IMVI > 100 µM | NCI-H460 > 100 µM | SF-539 > 100 µM | HCT-116 > 100 µM | OVCAR-4 > 100 µM | UO-31 > 100 µM | Malme-3M > 100 µM | SNB-19 > 100 µM | U-251 > 100 µM | SF-295 > 100 µM | A498 > 100 µM | EKVX > 100 µM | NCI-H23 > 100 µM | UACC-62 > 100 µM

O=C1Nc2ccccc2C12CCNC2Cc1ccccc1 (stereo not drawn)
inactive: LOX IMVI > 100 µM | NCI-H460 > 100 µM | SF-539 > 100 µM | HCT-116 > 100 µM | OVCAR-4 > 100 µM | SK-MEL-2 > 100 µM | Malme-3M > 100 µM | SNB-19 56.6 µM | U-251 > 100 µM | SF-295 > 100 µM | A498 > 100 µM | EKVX > 100 µM | NCI-H23 > 100 µM | UACC-62 > 100 µM

C#CN1C(=O)c2c(c(-c3ccccc3)c(-c3ccc(Oc4ccc(-c5c(-c6ccccc6)c6c(c(-c7ccccc7)c5-c5ccccc5)C(=O)N(C#C)C6=O)cc4)cc3)c(-c3ccccc3)c2-c2ccccc2)C1=O
inactive: SN12C 30.1 µM | LOX IMVI > 100 µM | NCI-H460 > 100 µM | SF-539 > 100 µM | HCT-116 > 100 µM | OVCAR-4 > 100 µM | UO-31 > 100 µM | SK-MEL-2 > 100 µM | Malme-3M > 100 µM | SNB-19 > 100 µM | U-251 > 100 µM | SF-295 > 100 µM | EKVX > 100 µM | NCI-H23 > 100 µM | UACC-62 > 100 µM

O=C(/C=C1/Nc2ccc([N+](=O)[O-])cc2NC1O)c1cccc([N+](=O)[O-])c1 (stereo not drawn)
inactive: SN12C > 100 µM | LOX IMVI 22.2 µM | NCI-H460 39.2 µM | SF-539 20.7 µM | HCT-116 26.2 µM | OVCAR-4 4.16 µM | UO-31 35.9 µM | Malme-3M 38.4 µM | SNB-19 > 100 µM | U-251 21 µM | SF-295 13.6 µM | A498 > 100 µM | EKVX > 100 µM | NCI-H23 36.6 µM | UACC-62 81.7 µM

COc1ccc(/C(=N\NC(=N)N)C(c2ccc(OC)cc2)C2OC(=O)c3ccccc32)cc1 (stereo not drawn)
inactive: SN12C > 100 µM | LOX IMVI > 100 µM | NCI-H460 > 100 µM | SF-539 > 100 µM | HCT-116 > 100 µM | OVCAR-4 > 100 µM | UO-31 > 100 µM | Malme-3M > 100 µM | SNB-19 > 100 µM | U-251 > 100 µM | SF-295 > 100 µM | NCI-H23 > 100 µM | UACC-62 > 100 µM

COc1ccc(C2S/C(=C\c3ccc([N+](=O)[O-])cc3)C(=O)N2NC(=O)Cc2ccccc2)cc1 (stereo not drawn)
inactive: SN12C > 100 µM | LOX IMVI > 100 µM | NCI-H460 > 100 µM | SF-539 > 100 µM | HCT-116 66.4 µM | OVCAR-4 > 100 µM | UO-31 > 100 µM | SK-MEL-2 > 100 µM | Malme-3M > 100 µM | U-251 79.3 µM | SF-295 > 100 µM | A498 > 100 µM | NCI-H23 > 100 µM | UACC-62 85.9 µM

O=C(/C=C/c1ccc(OCCCCCCCCCCOc2ccc(/C=C/C(=O)c3ccc(Cl)cc3)cc2)cc1)c1ccc(Cl)cc1
inactive: SN12C > 100 µM | LOX IMVI > 100 µM | NCI-H460 > 100 µM | SF-539 > 100 µM | UO-31 > 100 µM | SK-MEL-2 > 100 µM | Malme-3M > 100 µM | SNB-19 > 100 µM | U-251 > 100 µM | SF-295 > 100 µM | A498 > 100 µM | EKVX > 100 µM | NCI-H23 > 100 µM | UACC-62 > 100 µM

O=C1N[C@@H](O)[C@@H]2ON=C(c3ccccc3)[C@H]12
inactive: SN12C > 100 µM | LOX IMVI > 100 µM | NCI-H460 > 100 µM | SF-539 > 100 µM | HCT-116 > 100 µM | OVCAR-4 > 100 µM | UO-31 > 100 µM | SK-MEL-2 > 100 µM | Malme-3M > 100 µM | SNB-19 > 100 µM | U-251 > 100 µM | SF-295 > 100 µM | A498 > 100 µM | EKVX > 100 µM | NCI-H23 > 100 µM | UACC-62 > 100 µM

c1ccc(SC23C4C5C6C4C2C6C53)nc1 (stereo not drawn)
inactive: SN12C > 100 µM | LOX IMVI > 100 µM | NCI-H460 > 100 µM | SF-539 > 75 µM | HCT-116 > 100 µM | OVCAR-4 > 100 µM | UO-31 35.6 µM | SK-MEL-2 > 100 µM | Malme-3M > 100 µM | SNB-19 > 100 µM | U-251 > 100 µM | SF-295 > 100 µM | A498 > 63.7 µM | EKVX > 100 µM | NCI-H23 > 100 µM | UACC-62 > 100 µM
